In PubChem BioAssay AID1626 (SRMLSC, 2009):

Test system: M. tuberculosis H37Rv growth inhibition
Assay: M. tuberculosis H37Rv growth inhibitors, H37Rv strain (AID 1626)
Settings: for IC90: measured here: IC90 against H37Rv; for CC50: measured here: Vero cell cytotoxicity

SMILES | IC50 [µM] | IC90 [µM] | CC50 [µM]
Cn1nc(C(F)(F)F)c2cc(NC(=O)OCC(C)(C)C)sc21 | 13.3 | > 100 | 
O=C(O)C1CCCCC1C(=O)Nc1ccccc1Nc1ccccc1 (centres undefined) |  | > 100 | 
O=C(/C=C/c1ccnc2ccccc12)c1cccs1 | 17.6 | 24.6 | > 40
O=C(Nc1ccccc1Cl)Oc1ccc2ccccc2c1 |  | > 100 | 
CCCCCOc1ccc(Br)cc1CSC(=N)N | 9.43 | 12 | 14.8
CCS(=O)(=O)Nc1ccc(-c2cc(-c3ccccc3)c3cc(C)ccc3n2)cc1 | 9.19 | 13.5 | 34.7
CC(C)Cn1c(N)c(C(=O)COC(=O)c2cnc(Cl)c(Cl)c2)c(=O)n(C)c1=O | 8.01 | 20.7 | > 40
CCOC(=O)c1cccc(NC(=O)CCc2nc(-c3ccc(C)cc3)no2)c1 | 30.1 | > 100 | 
CCCCOC(=O)c1ccc(NC(=O)C(=O)NCCN(CC)CC)cc1 | 35.7 | > 100 | 
O=c1oc2ccc(Br)cc2cc1-c1nc2ccccc2o1 | 2 | 3.83 | 
CCOC(=O)c1cc(-c2csc(COc3ccc(Cl)cc3)n2)on1 | < 0.195 | 2.41 | 
C[C@H](NC(=O)c1[nH]cnc1C(=O)Nc1ccccc1)C(=O)OC(C)(C)C | 1.68 | 5.62 | > 40
O=C(Nc1cccc(NC(=O)c2cccs2)c1)c1ccc([N+](=O)[O-])o1 | 7.97 | 14.3 | 13.8
O=S(=O)(c1ccc(Cl)c(Cl)c1)c1snnc1-c1ccccc1 | 2.71 | 5.42 | 3.84
CCC(=C(c1ccc(OC)cc1)c1ccc(OC)cc1)c1cn(CC(O)CN(CCO)CCO)c2ccccc12 (centres undefined) | 12.5 | 13.6 | 26.5
Cc1ccc(Nc2cc(C)nn2-c2nc(C)cc(C)n2)cc1 | < 0.195 | 56.1 | 13.5
COc1ccc(-c2cc3nc(C)c(CCC(=O)NCc4ccc(F)cc4)c(C)n3n2)c(OC)c1 |  |  | > 40
O/N=C/c1ccc2ccccc2c1 |  | > 100 | 
Cc1cc(C(=O)Cn2cncn2)c(C)n1CCc1ccc(F)cc1 |  | > 100 | 
Oc1ccc(COCc2ccccc2)c2cccnc12 | 3 | 3.31 | 1.6
Cc1ccc(CN=c2c([N+](=O)[O-])nn(-c3cccc(Cl)c3)n2O)cc1 | 2.8 | 2.94 | 

SMILES | IC50 [µM] | IC90 [µM] | CC50 [µM]
Nc1ccc2ncccc2c1 | 37.9 | > 100 | 
COc1ccc(-c2nnc(NC(=O)c3ccccc3C)o2)cc1 | 0.944 | > 100 | > 40
c1ccc(-c2nc(NCCCn3ccnc3)c3ccccc3n2)cc1 | 5.87 | 8.05 | > 40
CC(=O)Nc1ccc(NC(=O)c2ccc(C3SCC(=O)N3CCc3ccccc3)cc2)cc1 (centres undefined) |  | > 100 | 
CCOC(=O)C(Cc1ccccc1)C(=O)Nc1cccc2ccccc12 (centres undefined) | 4 | 12.7 | 
Cc1cc(NC(=O)CSc2nc(C(C)C)nc3sc4c(c23)CCCC4)no1 | 11.2 | > 100 | > 40
Cc1cc(C)c2c(CN3CCN(Cc4ccc5c(c4)OCO5)CC3)cc(=O)oc2c1C | 19 | > 100 | 
C#CCn1c(=NC(=O)c2cc(Cl)sc2Cl)sc2cc(S(N)(=O)=O)ccc21 | 1.57 | > 100 | > 40
C=CCn1c(SCc2csc(-c3ccc(C)cc3)n2)nnc1-c1ccccc1OC | 16.5 | 23.8 | > 40
CCOc1ccc(-c2nnc(N)o2)cc1 | 57.8 | > 100 | 
CCOC(=O)c1ccc(-n2c(CCC(=O)O)ccc2-c2cccs2)cc1 |  | > 100 | 
O=C1Nc2ccccc2C1=Nc1ccc(S(=O)(=O)Nc2nccs2)cc1 | 4.54 | 11.3 | 
c1cc2c(cc1C1CCCCC1)c1c3n2CCCNC3CCC1 (centres undefined) | 6.06 | 6.63 | 6.99
CSc1cccc(NC(=O)CSc2nnc(C)s2)c1 | 97.1 | > 100 | 
c1ccc(-c2nc(NCc3ccco3)c3ccccc3n2)nc1 | 1.92 | 3 | 9.33
Cc1ccc(C(=O)Nc2nnc(-c3ccco3)o2)cc1C | < 0.195 | > 100 | > 40
CCOc1ccc2nc(NC(=O)CSc3nc(-c4ccccc4)c(C#N)c(=O)[nH]3)sc2c1 |  | > 100 | 
Cc1cccn2c(=O)c3cc(C(=O)NCc4ccco4)c(=N)n(CCc4ccccc4)c3nc12 | 9.99 | 21.2 | 18.8
CCOC(=O)Cc1ccc(NC(=O)c2ccc(C(C)(C)C)cc2)cc1 | 35.6 | > 100 | > 40
CC(=O)c1ccc(NC(=O)c2ccc(CNc3c(N4CCOCC4)c(=O)c3=O)cc2)cc1 | 5.81 | 6.61 | 
